Values after ≈ are worked out from the molar mass of the structure shown.
Tests used:
[1] = Solid-state stability of crystalline Form II on standing; type: physicochemical; settings: after 1 month standing at 60° C.
Protocol: The amlodipine free base can be of any form including crystalline form I, crystalline form II or amorphous. […] This form corresponds to the material described by […] and Deasy. […] Although it is possible to convert Form II into Form I by applying sufficiently high temperatures, generally over 100 C., Form II is generally stable at ambient conditions and even at moderately elevated temperatures. For instance, the Form II is stable after 1 month standing at 60° C. Accordingly, Form II is thus useful in manufacturing of pharmaceutical final forms. The amlodipine free base in the tablet of the present invention can be of a single type or can be a mixture. For example, a mixture of crystalline Forms I and II.

[2] = Stickiness comparison (average punch residue of tablets); type: physicochemical; settings: tablets with microcrystalline cellulose and calcium sulphate dihydrate, 20 mm punch, 400 mg tablet, slope over runs of 50-300 tablets
Protocol: An amlodpine free base tablet according to the present invention is preferably a low punch residue tablet. A “low punch residue” as used herein means that the average amount of amlodipine left on a tablet punch is not more than 1 μg/cm^2 per tablet based on a 20 mm round flat punch with a compression force of 15 kilo-newtons. Preferably, the tablet has an average punch residue of 0.7 μg/cm^2 per tablet, more preferably 0.6 μg/cm^2 per tablet. The amount of amlodipine residue can be measured by the process described in EP 244 944. In general the method involves washing the punch after runs of 50, 100, 150, 200, 250 and 300 tablets, using methanol and an ultrasonic bath. The amount of amlodipine in the samples is measured by uv and the total amount of amlodipine extracted from both the upper and lower punch is plotted against the amount of tablets made. An average value for amlodipine residue (stickiness) is calculated from the slope of the regression line by forcing the y-intercept of the line through zero.
After 50 tablets, the tablet material was extracted from the punches using methanol and an ultrasonic bath. […] The extracts together with Amlodipine calibration samples were measured spectrometrically. […] An average value for stickiness was calculated from the slope of the regression line by forcing the y-intercept of the line through zero.

[3] = solid amlodipine free base; Int. J. of Pharmaceutics 133, 71-83 (1996); cited from earlier work

CCOC(=O)C1=C(COCCN)NC(C)=C(C(=O)OC)C1c1ccccc1Cl (stereo not shown) [Form II]
stability of crystalline form [1]: stable

CCOC(=O)C1=C(COCCN)NC(C)=C(C(=O)OC)C1c1ccccc1Cl (stereo not shown) [amlodipine besylate]
Average residue (stickiness) [2]: 1.16 μg ADP.cm^−2.tablet^−1

CCOC(=O)C1=C(COCCN)NC(C)=C(C(=O)OC)C1c1ccccc1Cl (stereo not shown) [amlodipine free base, 2-[(2-aminoethoxy)methyl]-4-(2-chlorophenyl)-3-ethoxycarbonyl-5-methoxycarbonyl-6-methyl-1,4-dihydropyridine]
aqueous solubility [3]: 77.4 µg/mL (≈ 189 µM) | Average residue (stickiness) ([2]; listed as Amlodipine base): 0.55 μg ADP.cm^−2.tablet^−1
